# Columns and labels:
# MAO-A = MAO-A (Homo sapiens (Human), UniProt P21397); assay: Competitive binding test against MAO-A with [18F] Fluoroethyl harmine; details: for IC50: label ligand [18F] Fluoroethyl harmine; for binding against MAO-A (in words): competitive binding test
# Protocol: MAO-A (M7316) was purchased from Sigma Aldrich Co. LLC (St. Louis, MO). The […] (0.5 μg) and 0.1 to 10,000 nM of [^18F] Fluoroethyl harmine (10 μCi/mL, 2 nM) […] were mixed (200 μL), and the mixture was reacted at room temperature for 1 hour. The reaction solution was transfered to MultiScreen HTS 96-well 0.65 μm filtration plate (Millipore, Billerica, MA), and a B/F separation was conducted with MultiScreen HTS Vacuum Manifold, and washed with Dulbecco's PBS and 0.1% BSA three times, and a radioactivity contained in a filter was measured with a gamma counter (AccFLEX γ7000, manufactured from ALOKA Co. Ltd.). The IC50 value was calculated similarly to the case of MAO-B.
# MAO-B [1] = biological target: T1, MAO-B (Homo sapiens (Human), UniProt P27338); assay: Competitive binding test against MAO-B with [3H] THK-5351; details: for IC50: MAO-B membrane fractions, label ligand [3H] THK-5351; for binding to MAO-B (in words): competitive binding test
# Protocol: MAO-B (M7441) was purchased from Sigma Aldrich Co. LLC (St. Louis, MO). The MAO-B membrane fractions (0.5 μg), and 0.1 to 10,000 nM of [3H] […] The reaction solution was transferred to MultiScreen HTS 96-well […] filtration plate (Millipore, Billerica, MA), and a B/F separation was conducted with a MultiScreen HTS Vacuum Manifold, and the mixture was washed with Dulbecco's PBS, and 0.1% BSA three times, and the filter was incubated with 2 mL of Scintillation fluid (Emulssifer-Safe; Perkin Elemer, Boston, MA), and a radio activity was measured with a beta counter (LS6500 liquid scintillation counter, Beckman Counter, Brea, CA). IC50 value was calculated by using Graph Pad Prism Version 7 (GraphPad Software, San Diego, CA).
# tau = tau (Homo sapiens, UniProt P10636); assay: Competitive binding against tau in Alzheimer's disease brain with [3H] MK-6240; details: for IC50: Alzheimer's disease brain (Braak stage VI), label ligand [3H] MK-6240; for binding to tau (in words): competitive binding test
# Protocol: A binding affinity against tau containined in a AD brain was conducted by using Alzheimer's disease brain (Braak stage VI) and [3H] MK-6240 (manufactured by Metck & Co) as a label ligand. The IC50 value was calculated similarly to the case of MAO-B.
# [2] = Dynamic evaluation (body distribution) in normal mouse; assay type: in vivo; details: bone accumulation, male ICR mouse
# Protocol: Each saline containing [^18F] HK-5470 as the compound of the present invention, (S)-[^18F] HK-5174 as the comparative compound, or [^18F] HK-5351 as the ^18F labeled-compound (740 kBq) was administered intravenously via tail to male ICR mouse (6 weeks old), and after 2 min., 10 min., 30 min., 60 min., and 120 min., cervical dislocation of mouse was performed under ether anesthesia, and each organ tissue including brain was extracted, and a weight and a radioactivity of each organ was measured with Gamma counter (AccuFLEX γ7000, measured by Hitachi-Aloka Medical, Tokyo). The accumulation of radioactivity was evaluated by making the ratio of radioactivity per weight of tissue against total administered radioactivity (% Injected Dose/g of tissue; % ID/g) an index. The evaluation was conducted in a ratio of four per group.
# MAO-B [3] = biological target: T1, MAO-B; assay: In vitro autoradiography of human necropsy brain sections; assay type: binding
# Protocol: Each […] slice frozen section of a normal necropsy brain (person) and an Alzheimer's disease necropsy brain (person; neurofibrillary tangles stage was Braak stage VI) was dried at room temperature, and phosphate buffered saline (PBS) was added thereto and the wetting treatment was consucted for 30 minutes. Pre-incubation was conducted for 30 minutes by using PBS containing 1% bovine serum albumin (BSA). A PBS (370 kBq/mL) containing 1% BSA of the ^18F labeled compound were added dropwise to the section, and the reaction was conducted at room temperature for 30 minutes. In order to evaluate a specific binding to MAO-B, a similar reaction to the above reaction was conducted in the presence of MAO-B selective inhibitor (that is, Lazabemide) (10 μM). After that, the section was washed by soaking it in PBS containing 1% BSA for 5 minutes, and further in PBS for 5 minutes twice. After the section was dried at room temperature, an imaging plate (GE healthcare, BAS-MS 2025) was exposed to light, and an image (spartial resolution 25 μm×25 μm) was acquired by a FLA-9500 imaging analyzer plate (GE healthcare). The adjacent sections were subjected to an immunostaining using MAO-B (manufactured from Sigma, Aldrich, Co. LLC), AT8 tau (manufactured from Innogenetics, N.V.), or 6F/3D 6-amyloid (DAKO) antibody, and the resulting stainned distributions were compared with a distribution of a binding to tracer. Similar tests were conducted by using as comparative compound, (S)-[^18F] HK-5174 (WO 2017/103257 A1), and(S)-[^18F] THK-5351, each having the following structural formula respectively.
# MAO-A, sequence (P21397 whole entry): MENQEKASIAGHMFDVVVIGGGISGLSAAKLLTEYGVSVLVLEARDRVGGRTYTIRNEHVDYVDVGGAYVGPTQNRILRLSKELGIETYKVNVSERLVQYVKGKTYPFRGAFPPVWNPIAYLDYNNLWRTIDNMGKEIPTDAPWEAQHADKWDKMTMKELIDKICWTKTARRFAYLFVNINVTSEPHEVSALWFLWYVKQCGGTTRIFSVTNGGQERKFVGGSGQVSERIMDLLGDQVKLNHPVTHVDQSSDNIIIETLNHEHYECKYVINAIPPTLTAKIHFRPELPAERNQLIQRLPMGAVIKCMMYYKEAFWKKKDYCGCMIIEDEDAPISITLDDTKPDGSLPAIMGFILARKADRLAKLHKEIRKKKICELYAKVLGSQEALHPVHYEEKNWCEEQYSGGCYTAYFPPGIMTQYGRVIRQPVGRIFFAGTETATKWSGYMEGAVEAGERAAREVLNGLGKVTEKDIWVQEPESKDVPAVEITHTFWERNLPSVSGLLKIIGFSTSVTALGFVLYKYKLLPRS
# tau, sequence (P10636 2-758 limits assumed): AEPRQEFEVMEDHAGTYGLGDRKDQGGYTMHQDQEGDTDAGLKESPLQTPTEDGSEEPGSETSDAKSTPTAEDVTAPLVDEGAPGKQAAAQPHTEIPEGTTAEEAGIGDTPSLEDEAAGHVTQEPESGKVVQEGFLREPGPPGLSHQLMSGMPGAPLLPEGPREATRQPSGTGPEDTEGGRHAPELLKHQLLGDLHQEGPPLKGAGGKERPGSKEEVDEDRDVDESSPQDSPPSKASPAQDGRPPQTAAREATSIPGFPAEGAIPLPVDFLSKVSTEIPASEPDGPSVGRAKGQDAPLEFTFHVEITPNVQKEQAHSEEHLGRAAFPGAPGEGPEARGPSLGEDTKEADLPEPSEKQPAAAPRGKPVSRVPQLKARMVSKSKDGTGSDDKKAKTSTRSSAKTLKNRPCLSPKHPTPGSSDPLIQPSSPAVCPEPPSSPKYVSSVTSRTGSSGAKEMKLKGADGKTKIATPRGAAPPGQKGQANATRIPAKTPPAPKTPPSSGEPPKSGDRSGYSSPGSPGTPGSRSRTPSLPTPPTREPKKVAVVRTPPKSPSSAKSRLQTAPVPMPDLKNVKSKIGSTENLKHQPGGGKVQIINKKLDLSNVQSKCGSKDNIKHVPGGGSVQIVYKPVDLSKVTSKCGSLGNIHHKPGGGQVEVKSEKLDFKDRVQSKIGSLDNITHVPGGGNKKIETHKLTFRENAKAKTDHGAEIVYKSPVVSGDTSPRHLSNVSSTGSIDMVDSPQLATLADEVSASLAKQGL
# T1 sequence (P27338 whole entry): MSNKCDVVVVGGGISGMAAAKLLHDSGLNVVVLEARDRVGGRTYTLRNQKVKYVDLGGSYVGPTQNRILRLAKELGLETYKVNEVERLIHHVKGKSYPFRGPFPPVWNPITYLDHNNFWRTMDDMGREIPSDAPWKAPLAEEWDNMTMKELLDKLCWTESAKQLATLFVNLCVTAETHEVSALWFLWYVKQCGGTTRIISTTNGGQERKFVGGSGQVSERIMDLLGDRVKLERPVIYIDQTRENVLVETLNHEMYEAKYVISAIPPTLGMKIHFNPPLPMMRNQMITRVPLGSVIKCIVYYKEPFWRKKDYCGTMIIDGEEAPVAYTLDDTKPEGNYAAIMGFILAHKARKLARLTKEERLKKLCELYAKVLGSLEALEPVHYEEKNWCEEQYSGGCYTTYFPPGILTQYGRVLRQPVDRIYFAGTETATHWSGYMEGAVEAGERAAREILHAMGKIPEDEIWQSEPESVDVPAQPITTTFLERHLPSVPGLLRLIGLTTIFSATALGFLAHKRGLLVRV
Compound,IC50 (MAO-A) [nM],IC50 (MAO-B [1]) [nM],binding to MAO-B (in words) (MAO-B [1]),IC50 (tau) [nM],binding to tau (in words) (tau),binding against MAO-A (in words) (MAO-A),defluorination to bone [2],"accumulation in Alzheimer's disease (AD) frontal lobe sections (MAO-B [3]; 18F labeled compound 370 kBq/mL, autoradiography)","binding in the presence of MAO-B selective inhibitor Lazabemide (MAO-B [3]; Lazabemide 10 μM, AD frontal lobe section)","specificity of binding (autoradiography conclusion) (MAO-B [3]; human brain sections, compared with MAO-B and tau immunostaining)"
"CNc1ccc(-c2ccc3cc(OC[C@H](O)CF)ccc3n2)cn1 [THK-5351, reference compound]",> 10000,5,high binding,150,mild binding,–,–,–,–,–
Cc1ccc(-c2ccc3cc(OC[C@H](O)CF)ccc3n2)cn1 [THK-5470],713,–,–,4460,–,–,–,–,–,–
Cc1cc(-c2ccc3cc(OC[C@H](O)CF)ccc3n2)ccn1 [THK-5471],1740,12.9,significantly high binding,192,low binding,low binding,–,–,–,–
Cc1ncccc1-c1ccc2cc(OC[C@H](O)CF)ccc2n1 [THK-5472],> 10000,550,–,> 10000,low binding,low binding,–,–,–,–
Cc1ccncc1-c1ccc2cc(OC[C@H](O)CF)ccc2n1 [THK-5473],> 10000,294,–,> 10000,low binding,low binding,–,–,–,–
Cc1cncc(-c2ccc3cc(OC[C@H](O)CF)ccc3n2)c1 [THK-5474],> 10000,12.2,significantly high binding,9630,low binding,low binding,–,–,–,–
CNc1ccc(-c2ccc3cc(OC[C@H](O)C[18F])ccc3n2)cn1 [[^18F] THK-5351],–,–,–,–,–,–,could not be confirmed,high accumulation,decrease in the binding,binds to both MAO-B and tau

# From patent US12522579B2, “Monoamine oxidase B imaging probe” (TOHOKU UNIVERSITY, priority 2018, dated 2026)
